From patent publication US20040241840A1, “Compositions for therapy” (priority 2001, published 2004)
Counter-ions that a name gives are not always drawn. Marks after values point to notes of the source that are not given here.

Experiments:
[1] = biological target: T1, low affinity glucocorticoid binding site (LAGS) (Rattus norvegicus, UniProt P70580); assay: competition analysis with 5×10^−8M [3H]dexamethasone for binding to the LAGS; settings: for competition with dexamethasone for binding to the LAGS (in words): 4° for 8 hours, FIG. 2; for IC50: read-out: IC50% (concentration of unlabelled competitor reducing specific binding of radiolabelled dexamethasone to the LAGS to 50% of control)
T1 sequence (P70580 2-195): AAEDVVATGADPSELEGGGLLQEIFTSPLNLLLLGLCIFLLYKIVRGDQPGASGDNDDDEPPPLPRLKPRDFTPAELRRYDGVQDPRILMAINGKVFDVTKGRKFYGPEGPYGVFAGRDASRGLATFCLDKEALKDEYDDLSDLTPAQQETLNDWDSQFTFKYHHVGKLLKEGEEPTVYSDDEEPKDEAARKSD
Protocol: Washed liver microsomes (100,000 g pellet) were prepared after canulating the portal vein of a rat and perfusing blood from the liver using ice-cooled hanks buffer.
Data were analysed using standard methods.
Potential competitors were added from ethanol stocks such that the final ethanol concentration in the assay was less than 1% (v/v). Specific binding was determined using conventional methods as described above.
Free ligand was removed using dextran-charcoal. […] Competitors were added from ethanol stocks such that final ethanol concentration in the assay was less than 1% (v/v).

rat and human HSCs = assay: proliferation of rat and human HSCs, results in words; format: cell-based
Protocol: (§1) Rat hepatic stellate cells (HSCs) were isolated by pronase/collagenase perfusion and purified by isopycnic density centrifugation in Opti-prep™ (Nycomed) and elutriation (Wright et al (2001) Gastroenterology 121(3): 685-698). Human HSCs were isolated from discarded resected liver via a similar protocol. The use of human liver tissue for scientific investigation was approved by the UK South and West Local Research Ethics Commitee and was subject to patient consent.
(§2) HSCs were cultured in Dulbecco's modified Eagle Medium (DMEM) containing 4.5 g/l of glucose, supplemented with 16% (v/v) fetal calf serum, 80 u/ml penicillin, 80 μg/ml streptomycin and 32 μg/ml gentamycin. Cells were seeded onto plastic culture dishes and incubated at 37° C. in an humidified incubator gassed with 5% CO2 in air. The culture medium was renewed after the first day and thereafter every 3-4 days.
(§3) However, when rat and human HSCs were treated with ligands of LAGS, the proliferation and activation of the HSCs was inhibited. In addition, T6 cells (rat hepatic stellate cell line) were seeded at low density in 6 well plates in DMEM supplemented with 4% (v/v) FCS. The T6 cells were re-treated at 24 hours and counted at 48 hours. Human hepatic stellate cells were treated at days 2, 5, 7, 9 and 12 of culture and counted on day 15 of culture. Control cells were treated identically with 0.1% (v/v) ethanol used to prepare steroid stocks.

[2] = system: rats administered CCl4 (liver fibrosis); assay: CCl4 liver fibrosis rat in vivo model; settings: PCN once weekly during CCl4 twice weekly for 6 weeks
Protocol: Rats were administered CCl4 twice weekly for 6 weeks to cause liver fibrosis and administered PCN once weekly during CCl4 treatment.

[3] = system: T6 cells (rat hepatic stellate cell line); assay: proliferation of T6 cells (cell count); format: cell-based; settings: re-treated at 24 hours, counted at 48 hours
Protocol: as §3

[4] = system: α-smooth muscle actin expression in human HSCs; assay: α-smooth muscle actin expression in cultured human hepatic stellate cells (Western blotting); format: cell-based; settings: human HSCs cultured for 15 days, FIG. 3
Protocol: The effect of LAGS ligands on activation to the pro-fibrogenic phenotype was investigated by measuring the effect of LAGS ligands on expression of α-smooth muscle actin in cultured human hepatic stellate cells. […] Whole cell extracts (10 μg protein/lane) were probed for alpha-smooth muscle actin and GFAP (glial fibrillary acidic protein—loading control) protein expression by Western blotting. Scanned blots were quantitated using Phoretix software (Nonlinear Dynamics, Newcastle, UK).

[5] = biological target: T1, low affinity glucocorticoid binding site (LAGS); settings: 1 μM; Wright & Paine (1995); cited from earlier work
human HSCs = assay: proliferation of human hepatic stellate cells (cell count); format: cell-based; settings: treated at days 2, 5, 7, 9 and 12, counted on day 15
Protocol: as §1, §2
as §3, with “Control cells were treated identically with 0.1% (v/v) ethanol used to prepare steroid stocks.” left out

[6] = biological target: T1, low affinity glucocorticoid binding site (LAGS); assay: specific binding of 10 nM [3H]dexamethasone in rat liver microsomes; settings: read-out: % specific binding compared to dexamethasone alone, microsomes
glucocorticoid receptor = biological target: T2, glucocorticoid receptor (Rattus norvegicus, UniProt P06536); assay: specific binding of 10 nM [3H]dexamethasone in rat liver cytosol
T2 construct: from tissue; host or cells: rat liver cytosol
T2 sequence (P06536 1-795): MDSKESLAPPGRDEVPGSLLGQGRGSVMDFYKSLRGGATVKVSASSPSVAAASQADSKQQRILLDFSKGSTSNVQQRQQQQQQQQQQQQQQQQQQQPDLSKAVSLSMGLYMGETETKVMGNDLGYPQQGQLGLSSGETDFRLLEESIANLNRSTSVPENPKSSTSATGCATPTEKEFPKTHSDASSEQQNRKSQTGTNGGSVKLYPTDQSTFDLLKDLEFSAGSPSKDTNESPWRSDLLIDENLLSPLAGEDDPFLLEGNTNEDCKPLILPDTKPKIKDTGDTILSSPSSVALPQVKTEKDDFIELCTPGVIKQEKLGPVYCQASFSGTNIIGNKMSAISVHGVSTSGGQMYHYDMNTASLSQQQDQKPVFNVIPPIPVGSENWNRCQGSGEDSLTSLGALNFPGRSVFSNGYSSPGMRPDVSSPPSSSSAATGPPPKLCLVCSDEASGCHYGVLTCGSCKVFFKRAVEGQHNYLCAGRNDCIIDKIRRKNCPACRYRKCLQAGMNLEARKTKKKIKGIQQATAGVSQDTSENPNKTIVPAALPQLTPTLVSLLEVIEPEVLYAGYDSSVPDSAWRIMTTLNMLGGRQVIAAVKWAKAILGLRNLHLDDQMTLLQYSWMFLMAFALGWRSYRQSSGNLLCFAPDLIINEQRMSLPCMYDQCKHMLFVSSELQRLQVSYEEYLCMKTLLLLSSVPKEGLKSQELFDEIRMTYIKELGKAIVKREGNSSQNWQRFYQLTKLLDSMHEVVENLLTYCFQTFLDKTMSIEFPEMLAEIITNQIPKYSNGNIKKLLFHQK

Compound: CCC1(c2ccccc2)C(=O)NC(=O)NC1=O [phenobarbitone]
- competition with dexamethasone for binding to the LAGS (in words) [1]: compete with dexamethasone for binding to the LAGS

Compound: CC(=O)[C@H]1CC[C@H]2[C@@H]3CCC4=CC(=O)CC[C@]4(C)[C@H]3[C@H](O)C[C@]12C [11α-hydroxyprogesterone]
- IC50 [1]: 0.1 µM

Compound: CC(=O)[C@H]1CC[C@H]2[C@@H]3C[C@@H](O)C4=CC(=O)CC[C@]4(C)[C@H]3CC[C@]12C [6α-hydroxyprogesterone]
- IC50 [1]: 5 µM

Compound: CC(=O)[C@H]1[C@H](C#N)C[C@H]2[C@@H]3CC=C4C[C@@H](O)CC[C@]4(C)[C@H]3CC[C@@]21C [PCN, pregnenolone 16-alpha carbonitrile]
- effect on cell proliferation (in words) (rat and human HSCs): inhibited in their ability to proliferate
- Sirius red staining (collagens) in liver [2]: significantly reduced
- blinded histological scoring of H&E stained liver sections, CCl4 versus CCl4/PCN treated rats [2]: no significant difference
- liver serum (AST) enzyme levels, CCl4 versus CCl4/PCN treated rats [2]: no significant difference
- number of cells and extent of α-smooth muscle actin staining in livers [2]: significantly reduced
- competition with dexamethasone for binding to the LAGS (in words) [1]: compete with dexamethasone for binding to the LAGS
- % proliferation versus control (100%), T6 cells ([3]; 10 μM): 55 +/− 17%

Compound: CC(=O)C1CCC2C3CCC4=CC(=O)CCC4(C)C3CCC12C (stereo not shown) [progesterone]
- effect on cell proliferation (in words) (rat and human HSCs): no effect
- competition with dexamethasone for binding to the LAGS (in words) [1]: compete with dexamethasone for binding to the LAGS

Compound: oestradiol
- expression of α-smooth muscle actin (in words) ([4]; 1 μM oestradiol): inhibited expression of α-smooth muscle actin
- binding to the LAGS (in words) [5]: a ligand for the LAGS at this concentration

Compound: CC(=O)[C@H]1CC[C@H]2[C@@H]3CCC4=CC(=O)CC[C@]4(C)[C@H]3[C@@H](OS(=O)(=O)c3ccc(C)cc3)C[C@]12C [11β-progesterone tosylate]
- IC50 [1]: 10 µM

Compound: CC1CC2C3CCC4=CC(=O)C=CC4(C)C3(F)C(O)CC2(C)C1(O)C(=O)O (stereo not drawn) [17β-carboxylic acid derivative, 9α-fluoro 16α-methyl-11β,17α-dihydroxy-1,4-pregn-3-one 17-carboxylic acid]
- IC50 [1]: 100 µM

Compound: CC(=O)O[C@@H]1C[C@]2(C)[C@@H](C(C)=O)CC[C@H]2[C@@H]2CCC3=CC(=O)CC[C@]3(C)[C@H]21 [11α-progesterone acetate]
- IC50 [1]: 0.1 µM

Compound: Clc1ccccc1C(c1ccccc1)(c1ccccc1)n1ccnc1 [clotrimazole]
- effect on cell proliferation (in words) (rat and human HSCs): inhibited in their ability to proliferate
- competition with dexamethasone for binding to the LAGS (in words) [1]: compete with dexamethasone for binding to the LAGS
- expression of α-smooth muscle actin (in words) ([4]; 1 μM clotrimazole): inhibited expression of α-smooth muscle actin
- % proliferation versus control (100%), human HSCs (human HSCs; 5 μM): 25 +/− 13%
- % proliferation versus control (100%), T6 cells ([3]; 5 μM): 18 +/− 4.7%

Compound: CC(=O)O[C@@H]1C[C@H]2[C@@H]3CC[C@H](C(C)=O)[C@@]3(C)CC[C@@H]2[C@@]2(C)CCC(=O)C=C12 [6β-progesterone acetate]
- IC50 [1]: 0.5 µM

Compound: biotinylated dexamethasone
- IC50 [1]: > 100 µM

Compound: CO[C@H]1C[C@H](O[C@H]2[C@H](C)[C@@H](O[C@@H]3O[C@H](C)C[C@H](N(C)C)[C@H]3OC(C)=O)[C@@H](C)C[C@@]3(CO3)C(=O)[C@H](C)[C@@H](OC(C)=O)[C@@H](C)[C@@H](C)OC(=O)[C@@H]2C)O[C@@H](C)[C@@H]1OC(C)=O [TAO, troleandomycin]
- % proliferation versus control (100%), T6 cells ([3]; 100 μM): 106 +/− 2.8%

Compound: C[C@@H]1C[C@H]2[C@@H]3CCC4=CC(=O)C=C[C@]4(C)[C@@]3(F)[C@@H](O)C[C@]2(C)[C@@]1(O)C(=O)CO [dexamethasone]
- effect on cell proliferation (in words) (rat and human HSCs): no effect

Compound: CC#C[C@]1(O)CC[C@H]2[C@@H]3CCC4=CC(=O)CCC4=C3[C@@H](c3ccc(N(C)C)cc3)C[C@@]21C [RU486]
- activity at 10 µM [6]: 123%
- % specific binding compared to dexamethasone alone, cytosol (glucocorticoid receptor; 10 μM RU486, mean and SD of 3 samples): 0* %

Compound: CC(=NOCC(=O)O)[C@H]1CC[C@H]2[C@@H]3CCC4=C[C@@H](O)CC[C@]4(C)[C@H]3CC[C@]12C [4 pregnene-3β-ol-20-one carboxymethyloxime]
- IC50 [1]: > 100 µM

Compound: betamethasonenone
- IC50 [1]: 5 µM

Compound: C[C@@H]1C[C@H]2[C@@H]3CCC4=CC(=O)C=C[C@]4(C)[C@@]3(F)[C@@H](O)C[C@]2(C)[C@@]1(O)C(=O)COS(C)(=O)=O [dexamethasone mesylate]
- IC50 [1]: 10 µM

Compound: CC(C)(C(=O)c1cccnc1)c1cccnc1 [metyrapone]
- effect on cell proliferation (in words) (rat and human HSCs): inhibited in their ability to proliferate
- competition with dexamethasone for binding to the LAGS (in words) [1]: compete with dexamethasone for binding to the LAGS
- expression of α-smooth muscle actin (in words) ([4]; 200 μM metyrapone): inhibited expression of α-smooth muscle actin
- % specific binding compared to dexamethasone alone, cytosol (glucocorticoid receptor; metyrapone, concentration not given, mean and SD of 3 samples): 105 +/− 4.0%
- % proliferation versus control (100%), human HSCs (human HSCs; 500 μM): 76 +/− 18%
- % proliferation versus control (100%), T6 cells ([3]; 500 μM): 52 +/− 5.7%
